Structures can show the parent of a compound that is named as a salt. Where two headings read alike, the source gives them in different places.
How the values were obtained:
Format in all cases: biochemical
recombinant PRL-2 = target: T1, recombinant PRL-2 (Homo sapiens, UniProt Q12974); test: In vitro phosphatase assay (DiFMUP hydrolysis), PRL-2;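 further: PRL-2 activity read as DiFMUP hydrolysis after 20 min at room temperature with drug, enzyme first pre-reduced at 4 °C for 20 min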
T1 construct: 6xHis (N, cleaved yes); made in house; host or cells: E. coli One Shot BL21 Star
T1 sequence (Q12974 1-167): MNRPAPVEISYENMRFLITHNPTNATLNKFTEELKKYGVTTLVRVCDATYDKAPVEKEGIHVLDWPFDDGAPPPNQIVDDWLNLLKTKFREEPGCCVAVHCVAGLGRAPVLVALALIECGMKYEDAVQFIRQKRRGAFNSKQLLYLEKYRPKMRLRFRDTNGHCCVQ

recombinant PRL-1 = target: T2, recombinant PRL-1 (Homo sapiens, UniProt Q93096); test: In vitro phosphatase assay (DiFMUP hydrolysis), PRL-1; further: test concentration or dose not given here
T2 construct: 6xHis (N, cleaved yes); made in house; host or cells: E. coli One Shot BL21 Star
T2 sequence (Q93096 1-173): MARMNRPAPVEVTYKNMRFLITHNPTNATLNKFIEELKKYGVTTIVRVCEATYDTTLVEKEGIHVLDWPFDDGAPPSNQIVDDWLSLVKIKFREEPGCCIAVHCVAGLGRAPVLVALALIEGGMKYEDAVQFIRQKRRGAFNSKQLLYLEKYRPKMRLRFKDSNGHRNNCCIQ

recombinant PRL-3 = target: T3, recombinant PRL-3 (Homo sapiens, UniProt O75365); test: In vitro phosphatase assay (DiFMUP hydrolysis), PRL-3; further: test concentration or dose not given here
T3 construct: 6xHis (N, cleaved yes); made in house; host or cells: E. coli One Shot BL21 Star

[1] = FDA-approved drug screen, activity compared to DMSO
[2] = FDA-approved drug screen, compared to DMSO

T3 sequence (O75365 whole entry): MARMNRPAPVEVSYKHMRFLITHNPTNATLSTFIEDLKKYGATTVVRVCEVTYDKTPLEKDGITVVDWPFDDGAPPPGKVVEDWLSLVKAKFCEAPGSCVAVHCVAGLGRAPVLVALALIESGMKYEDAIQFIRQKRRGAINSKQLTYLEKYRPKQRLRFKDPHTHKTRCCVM

SMILES	% Phosphatase Activity (compared to DMSO) PRL-2 (recombinant PRL-2; [2]) [%]	% Phosphatase Activity (compared to DMSO) PRL-1 (recombinant PRL-1; [2]) [%]	% Phosphatase Activity (compared to DMSO) PRL-3 (recombinant PRL-3; [2]) [%]	other results
CS(=O)(=O)CCNCc1ccc(-c2ccc3ncnc(Nc4ccc(OCc5cccc(F)c5)c(Cl)c4)c3c2)o1.Cc1ccc(S(=O)(=O)O)cc1.Cc1ccc(S(=O)(=O)O)cc1 [Lapatinib (GW-572016) Ditosylate]				% Phosphatase Activity (compared to DMSO) PRL-2 (recombinant PRL-2): 255%; % Phosphatase Activity (compared to DMSO) PRL-1 (recombinant PRL-1): 212%; % Phosphatase Activity (compared to DMSO) PRL-3 (recombinant PRL-3): 142%
Cc1ccc(-n2nccn2)c(C(=O)N2CCN(c3nc4cc(Cl)ccc4o3)CC[C@H]2C)c1 [Suvorexant (MK-4305)]				% Phosphatase Activity (compared to DMSO) PRL-2 (recombinant PRL-2; [1]): 78%; % Phosphatase Activity (compared to DMSO) PRL-1 (recombinant PRL-1; [1]): 86%; % Phosphatase Activity (compared to DMSO) PRL-3 (recombinant PRL-3; [1]): 89%
CCOC(=O)C1=C(C)NC(C)=C(C(=O)OCC)C1c1ccccc1/C=C/C(=O)OC(C)(C)C [Lacidipine]	329	232	172	
CCOc1ccccc1OC(c1ccccc1)C1CNCCO1.CS(=O)(=O)O (stereo not drawn) [Reboxetine mesylate]	118	125	99	
CCCc1nc(C)c2c(=O)[nH]c(-c3cc(S(=O)(=O)N4CCN(CC)CC4)ccc3OCC)nn12.Cl.O.O.O [Vardenafil HCl Trihydrate]				% Phosphatase Activity (compared to DMSO) PRL-2 (recombinant PRL-2; [1]): 98%; % Phosphatase Activity (compared to DMSO) PRL-1 (recombinant PRL-1; [1]): 98%; % Phosphatase Activity (compared to DMSO) PRL-3 (recombinant PRL-3; [1]): 84%
CCCCOC(=O)c1ccc(N)cc1 [Butamben]	94	91	80	
Cc1cnc(NC(=O)C2=C(O)c3ccccc3S(=O)(=O)N2C)s1 [Meloxicam]	75	74	83	
O=C(O)c1cn(-c2ccc(F)cc2)c2cc(N3CCNCC3)c(F)cc2c1=O [Sarafloxacin HCl]	108	108	116	
C[C@]1(O)CC[C@H]2[C@@H]3CCC4=CC(=O)CC[C@]4(C)[C@@]3(F)[C@@H](O)C[C@@]21C [Fluoxymesterone]				% Phosphatase Activity (compared to DMSO) PRL-2 (recombinant PRL-2): 102%; % Phosphatase Activity (compared to DMSO) PRL-1 (recombinant PRL-1): 90%; % Phosphatase Activity (compared to DMSO) PRL-3 (recombinant PRL-3): 76%
O=C(O)C(=O)O.[NH-][C@@H]1CCCC[C@H]1[NH-].[Pt+2] [Oxaliplatin]	97	92	76	
Cn1c(=O)cc(N2CCC[C@@H](N)C2)n(Cc2ccccc2C#N)c1=O [Alogliptin]	123	112	96	
CCCN1C[C@H](CSC)C[C@@H]2c3cccc4[nH]cc(c34)C[C@H]21 [Pergolide mesylate]	119	109	90	
CC(C[N+](C)(C)C)OC(N)=O (stereo not drawn) [Bethanechol chloride]	119	104	77	
N#Cc1ccccc1-c1cc(-c2ccccn2)cn(-c2ccccc2)c1=O [Perampanel]	376	488	451	
COc1ccc(Cl)cc1C(=O)NCCc1ccc(S(=O)(=O)NC(=O)NC2CCCCC2)cc1 [Glyburide]	100	104	77	
O=c1[nH]c2ccccc2n1C1CCN(CCCC(c2ccc(F)cc2)c2ccc(F)cc2)CC1 [Pimozide]	106	91	96	
O=P1(NCCCl)OCCCN1CCCl (stereo not drawn) [Ifosfamide]	99	100	78	
Cl.N=C(N)NN [Aminoguanidine (hydrochloride)]	91	100	87	
CNCCc1ccccn1.Cl.Cl [Betahistine 2HCl]	96	93	87	
C=CC(=O)Nc1cc(Nc2nccc(-c3cn(C)c4ccccc34)n2)c(OC)cc1N(C)CCN(C)C [AZD9291]	89	88	100	
